{
  "source": "patent US5445941A",
  "about": "“Method for screening anti-osteoporosis agents” (Eli Lilly and Company, priority 1993, dated 1995)",
  "key": {"[1]": {"tested_on": "TGFβ-2 promoter", "experiment": "CAT reporter expression, TGFβ-2 promoter (pTGF-1), MG63 cells cotransfected with pRSVER", "conditions": "TGFβ-2 promoter", "quoted_text": "(§3) Co-transfection experiments were performed in MG63 (human osteosarcoma) cells, using the ProFection Mammalian Transfection System (Promega). […] The cells were then refed with fresh 3:1 media containing 10% csFBS. Compounds to be evaluated for their ability to modulate reporter gene expression were added at the appropriate times and assayed as described below.\n(§4) Cultures of MG63 cells were transiently co-transfected with pRSVER plasmid and either phTG12, pTGF-1, or pB2-499 using the ProFection system (Promega). For each transfected cell culture, DNA-containing calcium phosphate precipitates were added dropwise to each culture dish and mixed thoroughly in the media. The pH of the media was carefully maintained between pH 7.2 and pH 7.4. Transfected cell cultures were then incubated overnight in a 5% CO2 atmosphere at 37° C. For all cultures, the precipitate was removed after overnight incubation by aspirating the media from the culture dishes, followed by rinsing each dish twice with D-PBS. For each cotransfected cell line, the buffer was replaced with 10 ml fresh medium containing 10% csFBS and one of the following compositions:\n(§5) a. 10 μl ethanol (hormone vehicle)=control;\n(§6) b. 10 μl 17β-estradiol (Sigma) (\"estradiol\") at a concentration of 10^-4 M in ethanol;\n(§7) d. 10 μl Tamoxifen (Sigma) at a concentration of 10^-4 M in ethanol.\n(§8) After 24 h incubation with these hormonal preparations (or the vehicle control), cells were washed twice with D-PBS. The cells were then scraped from the culture dishes using a rubber policeman and 1 ml of D-PBS. Cells were collected by centrifugation at 8,000 rpm for 2 minutes in a tabletop centrifuge (MicroMax Model, IEC, Newark, N.Y.). The supernatant was removed and the cell pellets were resuspended in 150 μL of a 0.25M Tris-HCl solution (pH 7.8). Cells were lysed by three cycles of freezing in a dry ice/ethanol bath and thawing in a water bath at 37° C. water bath (for 3 minutes each cycle). Lysed cell preparations were centrifuged at 15,000 rpm for 5 minutes at 4° C. to remove cell debris. Supernatants containing the soluble cell lysate were transferred to a new set of tubes for assaying chloramphenicol acetyltransferase (CAT) activity.\n(§9) Before performing CAT assays on such cell lysates, the protein content of each lysate was first determined using a commercially-available assay (BioRad Laboratories, Richmond, Calif.). […]"}, "[2]": {"tested_on": "TGFβ-3 promoter", "experiment": "CAT reporter expression, TGFβ-3 promoter (pB-499), MG63 cells cotransfected with pRSVER", "quoted_text": "as §3, §4, §5, §6, §7, §8, §9"}, "[3]": {"tested_on": "TGFβ-3 promoter", "experiment": "ER dependent induction of TGFβ-3 promoter (pB2-499) in MG63 cells", "type": "cell-based, human", "description": "It was known in the prior art that the ability of both estrogens and antiestrogens to influence TGFβ production is dependent on the expression of estrogen receptor (ER), but the level at which this influence is exerted was not known (i.e. transcriptional, translational or post-translational). A series of experiments were therefore performed to investigate the putative dependence on ER expression of induction of reporter gene expression using the TGFβ promoter-containing constructs of the invention.\nCultures of MG63 were prepared for co-transfection as in Example IV. One such culture was co-transfected with pB2-499 and pRSVER and another was co-transfected with pB2499 and pRSV vector plasmid (as a control).\n(b) 17β-estradiol (10^-7 M)"}, "[4]": {"tested_on": "TGFβ-3 promoter", "experiment": "TGFβ-3 activation in CHO cells (pB-301 and pRSVER, CAT)", "type": "cell-based, hamster", "conditions": "24 h, 0 M 10.6"}, "[5]": {"tested_on": "TGFβ-3 promoter", "experiment": "Dose response of TGFβ-3 promoter (pB-301) CAT induction in MG63 cells with pRSVER", "conditions": "for CAT activity: vehicle 0.85", "method": "For each group of twelve cultures, the particular estrogen or antiestrogen compound was tested in replicate cultures at […], varying in tenfold increments from 10^-9 M to 10^-5 M, as well as one set of replicate cultures treated with vehicle only (for a total of twelve cultures per experimental treatment). Hormones were dissolved in ethanol and applied to the cultures in media as described above. The four estrogens and antiestrogens tested were:\na. 17β-estradiol (Sigma Chemical Corp., St. Louis, Mo.);"}, "[6]": {"tested_on": "TGFβ-3 promoter", "experiment": "Reporter induction, pB-301 (TGFβ-3 promoter) and pRSVER in MG63 cells", "type": "cell-based, human", "conditions": "control 0.7", "method": "These assays were performed essentially as in Example V.\nTransfected cells were treated with varying amounts and combinations of hormones and then rinsed twice with D-PBS. Cells were then lysed upon incubation with 250 μL of eukaryotic cell lysis reagent (as described in Example VI) at 4° C. for 20 min and transferred to microcentrifuge tubes by scraping with a rubber policeman. Cell lysates were centrifuged at 14,000 rpm for 1 minute to remove cell debris. Cell extracts (supernatant) were then assayed for protein content and luciferase activities.\nLuciferase assays were performed as follows. 50 μL of each cell extract was added to 100 μL of reagent A buffer (containing 4.0 mM ATP/15 mM MgSO4 / 30 mM tricine buffer (pH 7.8)/ 10 mM DTT) in individual wells of a microtiter plate. 100 μL of 1 mM D(-)-luciferin (in 0.1M KPO4 (pH 7.8); Boehringer Mannheim) were added to each well and the amount of light produced measured by using a ML3000 microtiter plate luminometer (under conditions of integrate flash mode, high gain, integrate window=10 seconds, at a temperature of 22° C.). Luciferase activities were calculated as total light output relative to protein content in each cell lysate sample."}, "[7]": {"tested_on": "LDL receptor promoter", "experiment": "LDLR-Luc production in presence of ER (pLDLRLUC10 and pRSVER, HepG2 cells)", "type": "cell-based, human", "conditions": "listed as estrogen", "description": "(§1) A 1546 base pair sequence of the human LDL receptor promoter was amplified using the polymerase chain reaction. A reaction mixture containing 20 picomoles each of the synthetic oligonucleotides:\n(§2) The 1546 base pair fragment described above was isolated and cloned into the vector pSv2 containing firefly luciferase reporter gene that had been restriction enzyme digested to completion with NdeI and partially with HindIII. The resulting vector, pLDLRLUC10 contains the human LDL receptor promoter directing expression of the firefly luciferase gene, an ampicillin resistance marker and an origin of replication.\nATCC strain HepG2 cells were co-transfected with pLDLRLUC10 and pRSVER as described in Example IV."}, "[8]": {"tested_on": "TGFβ-3 promoter", "experiment": "TGFβ-3 activation in MCF-7 cells (pTGFβ-301LUC, luciferase)", "type": "cell-based, human", "conditions": "24 h, 0 M 7.8", "method": "Cultures of MCF-7 cells were transiently transfected with pTGFβ-301LUCas described in Example IV.\nAfter 24 hours of treatment with the hormonal preparation (or the vehicle control), the cells were washed, harvested, lysed and assayed for LUC activity according to the method of Example VI."}, "[9]": {"conditions": "animal models and humans; cited from earlier work"}, "[10]": {"tested_on": "TGFβ-3 promoter", "experiment": "TGFβ-3 promoter transcription in RL59.2, HeLa and COS-1 cells", "type": "cell-based, human", "conditions": "RL59.2, HeLa and COS-1 (monkey kidney) cells", "method": "Similar assays were performed in human endometrial cancer cells (RL59.2), human cervical cancer cells (HeLa) and monkey kidney cells (COS-1) (American Type Culture Collection, Rockville, Md.)."}, "[11]": {"tested_on": "TGFβ-1 mRNA", "conditions": "HEC-50, 1% ctFBS; cited from earlier work"}, "[12]": {"tested_on": "LDL receptor promoter", "experiment": "LDLR-Luc production in the absence of ER (pLDLRLUC10 and pRSV vector, HepG2 cells)", "type": "cell-based, human", "conditions": "for LDLR-Luc production: no ER, 0 M 1597", "description": "as §1, §2\nATCC strain HepG2 cells were co-transfected with pLDLRLUC10 and pRSV vector plasmid as described in Example IV."}, "[13]": {"tested_on": "TGFβ-1 promoter", "experiment": "CAT reporter expression, TGFβ-1 promoter (phTG12), MG63 cells cotransfected with pRSVER", "quoted_text": "as §3, §4, §5, §6, §7, §8\nBefore performing CAT assays on such cell lysates, the protein content of each lysate was first determined using a commercially-available assay (BioRad Laboratories, Richmond, Calif.). An amount of each cell lysate containing 100 μg total protein was then mixed with CAT assay buffer (0.4M Tris-HCl (pH 7.8)/ 0.5 mM acetyl-CoA (Boehringer Mannheim)/ 0.1 μCi D-threo-(dichloroacetyl-1,2-[^14 C]-chloramphenicol) for 15 hours. After this incubation, reactions were stopped by vigorously extracting the reaction mixture with 900 μL ethyl acetate. The organic and aqueous phases were separated by brief centrifugation at 14,000 rpm for 1 minute, and approximately 800 μL of the organic phase was transferred to a new set of tubes. Ethyl acetate was evaporated to concentrate the CAT-catalyzed reaction products.\nAcetylated and unacetylated chloramphenicol species were resolved by thin layer chromatography using a mixture of 95:5 (v/v) chloroform:methanol as the ascending buffer."}, "[14]": {"conditions": "Homo sapiens, MG-63, 24 h, read-out: Fold Ind."}},
  "note": "“Also recorded” adds a separate entry of the source.",
  "data": [
    {"smiles": "C[C@]12CC[C@@H]3c4ccc(O)cc4CC[C@H]3[C@@H]1CC[C@@H]2O", "note": "[estradiol, 17β-estradiol]", "values": [
      {"measurement": "Act. (relative CAT activity)", "setting": "[1]; 10 μl of 10^-4 M in 10 ml medium, 24 h, control 0.8", "value": 1.29},
      {"measurement": "Fold Ind.", "setting": "[1]; comparison with control, 1440 min, 0.1 µM", "value": 1.6, "unit": "fold"},
      {"measurement": "fold induction at 0.1 µM", "setting": "[2]; [14]", "value": 2.8},
      {"measurement": "Act. (relative CAT activity)", "setting": "[2]; TGFβ-3 promoter, 10 μl of 10^-4 M in 10 ml medium, 24 h, control 0.7", "value": 2.1},
      {"measurement": "effect of lack of ER expression (in words)", "setting": "[3]; lack of ER expression", "value": "virtually abolishes expression of TGFβ-3"},
      {"measurement": "reporter gene expression, Control Plasmid", "setting": "[3]; no ER (pRSV vector), estradiol 10^-7 M, raloxifene 2×10^-6 M, vehicle 0.9", "value": 1.0},
      {"measurement": "reporter gene expression, ER Expression Plasmid", "setting": "[3]; pRSVER, estradiol 10^-7 M, raloxifene 2×10^-6 M, vehicle 1.3", "value": 4.6},
      {"measurement": "CAT activity", "setting": "[4]; 10^-5 M", "value": 33.3},
      {"measurement": "CAT activity", "setting": "[4]; 10^-6 M", "value": 32.9},
      {"measurement": "CAT activity", "setting": "[4]; 10^-7 M", "value": 29.4},
      {"measurement": "CAT activity", "setting": "[4]; 10^-8 M", "value": 22.6},
      {"measurement": "CAT activity", "setting": "[4]; 10^-9 M", "value": 11.9},
      {"measurement": "CAT activity", "setting": "[5]; 10^-5 M, 24 h", "value": 3.4},
      {"measurement": "CAT activity", "setting": "[5]; 10^-6 M, 24 h", "value": 4.3},
      {"measurement": "CAT activity", "setting": "[5]; 10^-7 M, 24 h", "value": 1.6},
      {"measurement": "CAT activity", "setting": "[5]; 10^-8 M, 24 h", "value": 1.1},
      {"measurement": "CAT activity", "setting": "[5]; 10^-9 M, 24 h", "value": 0.96},
      {"measurement": "ED50 (in words)", "setting": "[5]; MG63 cells", "value": "two orders of magnitude higher than that of raloxifene"},
      {"measurement": "TGFβ-3 promoter activation (in words)", "setting": "[5]; MG63 cells", "value": "least potent inducer"},
      {"measurement": "induction of reporter gene transcription/expression", "setting": "[5]; mg63 cells, 24 h", "value": 4, "unit": "fold"},
      {"measurement": "reporter gene expression, pB-301", "setting": "[6]; 10^-5 M", "value": 8.0},
      {"measurement": "reporter gene expression, pB-301", "setting": "[6]; 10^-6 M", "value": 5.2},
      {"measurement": "reporter gene expression, pB-301", "setting": "[6]; 10^-7 M", "value": 5.5},
      {"measurement": "reporter gene expression, pB-301", "setting": "[6]; 10^-8 M", "value": 3.2},
      {"measurement": "reporter gene expression, pB-301", "setting": "[6]; 10^-9 M", "value": 1.1},
      {"measurement": "induction of LDL receptor promoter/expression (in words)", "setting": "[7]", "value": "mediated by ER; also recorded: have the ability to induce LDL receptor expression"},
      {"measurement": "Luciferase activity", "setting": "[8]; 10^-5 M", "value": "122 thousands of units"},
      {"measurement": "Luciferase activity", "setting": "[8]; 10^-6 M", "value": "101.3 thousands of units"},
      {"measurement": "Luciferase activity", "setting": "[8]; 10^-7 M", "value": "107.3 thousands of units"},
      {"measurement": "Luciferase activity", "setting": "[8]; 10^-8 M", "value": "9.1 thousands of units"},
      {"measurement": "Luciferase activity", "setting": "[8]; 10^-9 M", "value": "19.2 thousands of units"},
      {"measurement": "serum lipid lowering effect (in words)", "setting": "[9]", "value": "serum lipid lowering effect"},
      {"measurement": "transcription initiated by the TGFβ-3 promoter (in words)", "setting": "[10]", "value": "induced"},
      {"measurement": "TGFβ-1 mRNA concentration (in words)", "setting": "[11]", "value": "Decreased concentrations of TGFβ-1 mRNA"},
      {"measurement": "induction of LDLR promoter without ER (in words)", "setting": "[12]; at or below 10^-6 M, or high concentrations as worded, FIG. 16", "value": "No induction"},
      {"measurement": "LDLR-Luc production", "setting": "[12]; 10^-5 M", "value": 2445},
      {"measurement": "LDLR-Luc production", "setting": "[12]; 10^-6 M", "value": 1578},
      {"measurement": "LDLR-Luc production", "setting": "[12]; 10^-7 M", "value": 1574},
      {"measurement": "LDLR-Luc production", "setting": "[12]; 10^-8 M", "value": 1792},
      {"measurement": "LDLR-Luc production", "setting": "[12]; 10^-9 M", "value": 1645},
      {"measurement": "fold induction at 0.1 µM", "setting": "[13]; [14]", "value": 0.7},
      {"measurement": "Act. (relative CAT activity)", "setting": "[13]; TGFβ-1 promoter, 10 μl of 10^-4 M in 10 ml medium, 24 h, control […]", "value": 4.7},
      {"measurement": "response of the TGFβ-1 promoter region (in words)", "setting": "[13]; positions -1032 to +727", "value": "no response"}
    ]}
  ]
}
